Results from article PMC11320734 (ACS Pharmacology & Translational Science, 2024).
Like-named read-outs stand apart in the source and are kept apart here.

Legend:
[1] = Single-dose pharmacokinetics in mice; type: in vivo; details: mouse, plasma
Method: (§1) To characterize the pharmacokinetic behavior of RNB-61, studies in rodents were conducted at the in vivo facility of F. Hoffmann-La Roche Ltd. (Basel, Switzerland). The plasma-concentration time profile was studied in rodents after single-dose RNB-61 administration by oral gavage (p.o. microsuspension excipients 7.5% gelatin/0.62% NaCl) and intravenous bolus injection (i.v. solution, excipients NMP:NaCl (30:70)). Three groups of male Wistar rats (n = 2 per group) were administered RNB-61 either at 1 mg kg^–1 i.v., 3 mg kg^–1 p.o., or 26 mg kg^–1 p.o. Plasma samples were drawn at 0.083, 0.25, 0.5, 1, 2, 4, 8, and 24 postdose in the i.v. group and at 0.25, 0.5, 0.75, 1.5, 3, 5, 8, and 24 h postdose in the p.o. groups. The samples were analyzed for RNB-61 concentration by LC/MS-MS. For the LC/MS-MS analysis, and the samples were prepared by adding 100 uL to 400 uL ACN with ISTD (100 ng/mL Bosantan in ACN/MeOH 1/1), stirring, and centrifuging (4000 rpm, 65’). 100 uL of the supernatant were pipetted and diluted with 400 μL H2O at pH 3. The analytes were separated on a Restek C18 column (5 μm, 1.0 × 3 mm). The mobile phase consisted of water containing 0.1% HCOOH as solvent A and ACN containing 0.1% HCOOH as solvent B. The gradient curve starting with 5% B was changed to 90% B between 0.4 and 0.6 min and further increased to 95% B between 0.6 and 1.2 min. This was maintained until 1.4 min and then reduced and kept at 5% B between 1.45 and 2.0 min. The mass spectrometer was operated in the positive mode. All LC-MS/MS was done using the Agilent RapidFire Analyzer software (version 4.3). The pharmacokinetic parameters were estimated by noncompartmental analysis in the Certara WinNonlin software (version 5.3). A similar study design was run in mice with three groups receiving 2 mg kg^–1 i.v., 4 mg kg^–1 p.o., or 26 mg kg^–1 p.o., and plasma sampling occurring in a composite profile (n = 2 for each time point) up to 7 or 24 h postdose. Male C57/BL6 mice (n = 5 per group) were used to study the influence of P-gp efflux on brain penetration. Two groups of mice were administered RNB-61 by i.v. bolus injection at 1 mg kg^–1 (2 groups). In order to block P-gp activity, an i.v. bolus of 5 mg kg^–1 tariquidar[46] was injected into one group 30 min prior to RNB-61. Plasma was collected at 0.083, 0.25, 0.5, 2, 4, and 7 h postdose in a composite profile. Brain, CSF, and vitreous body were collected at terminal time points 0.5, 2, 4, and 7 h postdose.

TRPV1 = TRPV1 (Homo sapiens, UniProt Q8NER1); assay: Endocannabinoid target profiling: TRPV1; details: Table S1; read-out: TRPV1 (Ki, IC50)
CYP450 2C9 = target: T1, CYP450 2C9 (Homo sapiens, UniProt P11712); assay: CYP inhibition in pooled human liver microsomes; type: in vitro ADME
T1 construct: pooled human liver microsomes; from tissue; host or cells: pooled human liver microsomes
Method: (§2) Cytochrome P450 (CYP) assays were conducted as previously described.[41] In brief, RNB-61 was incubated at a range of concentrations with the following components: pooled human liver microsomes, CYP probe substrate around the reported Km, and NADPH with a final concentration: 1 mM in 100 mM sodium phosphate buffer (pH 7.4). The conditions were optimized for a linear metabolic rate for the probe substrate reactions. The analysis of the samples was carried out by LC-MS/MS. The assays generated two endpoints: IC50 (μM) and percent inhibition at the highest acceptable test concentration (typically 50 μM; lower if the highest concentration data are rejected due to insolubility). […] (GSH) adduct formation data was assessed as reported in a previous study.[42] Briefly, RNB-61 was incubated with human liver microsomes to form reactive metabolites, and glutathione was added as a nucleophile to convert the reactive metabolites into stable conjugates that could be analyzed by MS.

CYP450 3A4 = target: T2, CYP450 3A4 (Homo sapiens, UniProt P08684); assay: CYP inhibition in pooled human liver microsomes; type: in vitro ADME
T2 construct: pooled human liver microsomes; from tissue; host or cells: pooled human liver microsomes
Method: as §2

CYP450 2D6 = target: T3, CYP450 2D6 (Homo sapiens, UniProt P10635); assay: CYP inhibition in pooled human liver microsomes; type: in vitro ADME
T3 construct: pooled human liver microsomes; from tissue; host or cells: pooled human liver microsomes
Method: as §2

[2] = Parallel artificial membrane permeability (PAMPA) assay; type: in vitro ADME; details: for Papp: PAMPA, read-out: PAMPA Peff
Method: The general permeability of the compound was assessed using the parallel artificial membrane permeability (PAMPA) assay and the permeability-glycoprotein (P-gp) assay was used to specifically test for brain penetration. PAMPA data were generated as previously reported by our group.[44] The P-gp assay, which evaluates the brain penetration of test compounds, was performed as described elsewhere.[45] Briefly, transfected porcine kidney epithelial (LLC-PK1) cells expressing human or mouse P-gp were cultured on 96-well semipermeable filter membrane plates (Millipore, Darmstadt, Germany). Cells formed a polarized monolayer with tight junctions that acted as a barrier between apical and basolateral compartments. P-gp was expressed in the apical-facing membrane of the monolayer (tightness confirmed using Lucifer yellow). To determine the unidirectional permeability (Papp) of RNB-61, samples were added separately to the apical (for A > B Papp) and basolateral (for B > A Papp) sides of the cell monolayer (i.e., donor compartments), and RNB-61 movement into the respective receiver compartments was measured by LC-MS/MS over a 3 h incubation at 37 °C. The effect of P-gp was measured by expressing the efflux ratio of the unidirectional A > B and B > A Papp values. The mean permeability (A > B and B > A Papp) was determined in the absence of P-gp via the addition of the selective P-gp inhibitor, tariquidar.

[3] = Rodent single-dose PK studies (summary rats and mice); type: in vivo
Method: as §1, with “Two groups of mice were administered RNB-61 by i.v. bolus injection at 1 mg kg^–1 (2 groups). In order to block P-gp activity, an i.v. bolus of 5 mg kg^–1 tariquidar[46] was injected into one group 30 min prior to RNB-61. Plasma was collected at 0.083, 0.25, 0.5, 2, 4, and 7 h postdose in a composite profile. Brain, CSF, and vitreous body were collected at terminal time points 0.5, 2, 4, and 7 h postdose.” left out

TRPV1, sequence (Q8NER1 whole entry, species assumed): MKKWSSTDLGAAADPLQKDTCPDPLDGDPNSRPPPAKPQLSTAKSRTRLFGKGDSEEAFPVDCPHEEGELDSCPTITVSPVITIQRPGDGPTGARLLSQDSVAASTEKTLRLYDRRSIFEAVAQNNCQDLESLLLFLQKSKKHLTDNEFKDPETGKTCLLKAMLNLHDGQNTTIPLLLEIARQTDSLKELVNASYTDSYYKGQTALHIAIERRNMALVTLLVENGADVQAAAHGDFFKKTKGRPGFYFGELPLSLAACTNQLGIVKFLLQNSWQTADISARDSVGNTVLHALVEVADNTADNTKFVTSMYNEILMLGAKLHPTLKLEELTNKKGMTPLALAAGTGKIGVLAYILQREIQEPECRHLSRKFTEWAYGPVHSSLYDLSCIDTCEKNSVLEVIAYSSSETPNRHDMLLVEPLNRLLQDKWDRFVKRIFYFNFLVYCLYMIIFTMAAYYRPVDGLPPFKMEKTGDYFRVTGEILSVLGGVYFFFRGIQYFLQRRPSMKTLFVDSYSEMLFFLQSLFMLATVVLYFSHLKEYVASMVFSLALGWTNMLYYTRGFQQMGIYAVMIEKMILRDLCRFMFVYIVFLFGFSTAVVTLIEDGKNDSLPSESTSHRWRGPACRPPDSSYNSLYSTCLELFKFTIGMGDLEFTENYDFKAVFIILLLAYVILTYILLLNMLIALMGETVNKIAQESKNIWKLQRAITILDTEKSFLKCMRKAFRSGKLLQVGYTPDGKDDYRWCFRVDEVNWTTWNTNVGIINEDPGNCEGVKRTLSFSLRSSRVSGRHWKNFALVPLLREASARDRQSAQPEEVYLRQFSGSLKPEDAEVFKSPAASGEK
T3 sequence (P10635 whole entry): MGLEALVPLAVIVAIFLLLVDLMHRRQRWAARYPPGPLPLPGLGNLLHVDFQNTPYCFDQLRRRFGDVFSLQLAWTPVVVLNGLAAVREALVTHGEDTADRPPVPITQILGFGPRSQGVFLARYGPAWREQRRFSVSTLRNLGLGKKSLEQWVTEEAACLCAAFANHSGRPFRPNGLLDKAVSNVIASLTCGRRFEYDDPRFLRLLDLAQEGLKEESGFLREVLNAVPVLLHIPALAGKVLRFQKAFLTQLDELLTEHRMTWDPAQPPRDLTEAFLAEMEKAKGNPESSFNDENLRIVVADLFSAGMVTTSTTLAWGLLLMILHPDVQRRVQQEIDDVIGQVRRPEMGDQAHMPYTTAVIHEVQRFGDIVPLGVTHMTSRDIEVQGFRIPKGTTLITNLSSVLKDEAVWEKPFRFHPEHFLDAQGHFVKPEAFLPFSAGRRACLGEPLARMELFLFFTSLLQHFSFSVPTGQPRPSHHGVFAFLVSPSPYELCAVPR
T2 sequence (P08684 whole entry): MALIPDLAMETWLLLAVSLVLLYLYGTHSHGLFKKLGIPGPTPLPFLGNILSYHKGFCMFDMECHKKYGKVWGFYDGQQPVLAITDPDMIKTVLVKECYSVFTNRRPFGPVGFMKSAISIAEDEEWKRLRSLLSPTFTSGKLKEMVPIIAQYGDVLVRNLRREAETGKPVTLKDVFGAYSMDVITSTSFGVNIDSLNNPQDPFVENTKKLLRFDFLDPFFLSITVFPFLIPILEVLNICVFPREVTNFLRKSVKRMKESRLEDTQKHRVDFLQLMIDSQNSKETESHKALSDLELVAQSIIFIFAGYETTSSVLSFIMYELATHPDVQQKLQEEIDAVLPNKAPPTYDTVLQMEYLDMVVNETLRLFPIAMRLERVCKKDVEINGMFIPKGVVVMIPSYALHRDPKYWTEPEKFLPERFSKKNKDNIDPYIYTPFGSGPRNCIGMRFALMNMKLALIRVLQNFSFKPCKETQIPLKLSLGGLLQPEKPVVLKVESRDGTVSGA
T1 sequence (P11712 whole entry): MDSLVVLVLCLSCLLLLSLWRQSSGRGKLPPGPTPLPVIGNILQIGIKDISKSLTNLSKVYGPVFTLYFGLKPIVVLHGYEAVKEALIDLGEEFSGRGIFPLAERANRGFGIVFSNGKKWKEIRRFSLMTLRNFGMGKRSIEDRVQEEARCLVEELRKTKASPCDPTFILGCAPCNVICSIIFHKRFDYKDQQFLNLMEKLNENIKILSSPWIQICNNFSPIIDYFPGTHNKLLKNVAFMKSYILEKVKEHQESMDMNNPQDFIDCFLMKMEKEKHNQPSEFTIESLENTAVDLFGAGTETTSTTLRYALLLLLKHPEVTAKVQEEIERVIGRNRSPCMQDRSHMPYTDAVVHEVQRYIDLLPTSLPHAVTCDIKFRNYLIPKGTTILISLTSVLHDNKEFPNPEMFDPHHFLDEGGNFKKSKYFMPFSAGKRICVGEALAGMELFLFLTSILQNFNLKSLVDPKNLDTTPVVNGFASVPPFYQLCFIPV

Cn1c(C(C)(C)C)cc(=NC(=O)c2cc(C(F)(F)F)ccc2OCC(C)(C)O)n1CC1CCC1 [RNB-61]
AUC(0-inf) ([1]; iv, 2 mg kg^–1 i.v.): 8630 ng·h/mL | Cmax ([1]; iv, 2 mg kg^–1 i.v.): 1170 ng/mL | Tmax ([1]; iv, 2 mg kg^–1 i.v.): 0.25 h | clearance ([1]; iv, 2 mg kg^–1 i.v.): 3.9 mL/min/kg | half-life ([1]; iv, 2 mg kg^–1 i.v.): 7.7 h | Vd ([1]; iv, 2 mg kg^–1 i.v., read-out: Vss): 2.4 L/kg | AUC(0-inf) ([1]; po, 4 mg kg^–1 p.o.): 9300 ng·h/mL | Cmax ([1]; po, 4 mg kg^–1 p.o.): 843 ng/mL | Tmax ([1]; po, 4 mg kg^–1 p.o.): 2 h | bioavailability ([1]; po, 4 mg kg^–1 p.o.): 54% | half-life ([1]; po, 4 mg kg^–1 p.o.): 6.4 h | AUC(0-inf) ([1]; po, 26 mg kg^–1 p.o.): 47300 ng·h/mL | Cmax ([1]; po, 26 mg kg^–1 p.o.): 4370 ng/mL | Tmax ([1]; po, 26 mg kg^–1 p.o.): 2 h | bioavailability ([1]; po, 26 mg kg^–1 p.o.): 42% | half-life ([1]; po, 26 mg kg^–1 p.o.): 4.3 h | IC50 (TRPV1): > 50 µM | IC50 (CYP450 2C9): 50 µM | IC50 (CYP450 3A4): 35.5 µM | IC50 (CYP450 2D6): 15.5 µM | PAMPA %Acc [2]: 6% | PAMPA %Don [2]: 22% | PAMPA %Mem [2]: 72% | PAMPA Peff [2]: 2.14 × 10^–6 cm s^–1 | Papp ([2]; Table 1): 2.14 ×10⁻⁶ cm/s | Papp [2]: 0.9 ×10⁻⁶ cm/s | Vd ([3]; Wistar (rats), mouse strain not stated for this study, rat, mouse, plasma, intravenous, range rats and mice, read-out: volume of distribution at steady state (Vss)): 1.6 to 2.4 L/kg | half-life ([3]; Wistar (rats), mouse strain not stated for this study, rat, mouse, plasma, in rats and mice, read-out: terminal plasma half-life): 4 to 8 h | plasma clearance as share of hepatic blood flow ([3]; rodent single-dose PK): ~5 % of hepatic blood flow
